Measured values taken from patent US20110082130A1 (LIGAND PHARMACEUTICALS, INC., priority 2006, published 2011).

target: T1, chimeric human H3 receptor (Homo sapiens, UniProt Q9Y5N1); experiment: Chimeric human H3 receptor screening GTP binding assay (inhibition of histamine-stimulated GTP-gamma35S binding, Example 8); assay type: biochemical; conditions: 4 μM of the compound, 1 μM histamine, "†" in Ki of Table II, read-out: percent inhibition of the signal obtained with 1 μM histamine
T1 construct: made in house; host or cells: Sf9 insect cells (baculovirus); P2 membrane preparation
T1 sequence (Q9Y5N1 with tags, fused parts or gaps): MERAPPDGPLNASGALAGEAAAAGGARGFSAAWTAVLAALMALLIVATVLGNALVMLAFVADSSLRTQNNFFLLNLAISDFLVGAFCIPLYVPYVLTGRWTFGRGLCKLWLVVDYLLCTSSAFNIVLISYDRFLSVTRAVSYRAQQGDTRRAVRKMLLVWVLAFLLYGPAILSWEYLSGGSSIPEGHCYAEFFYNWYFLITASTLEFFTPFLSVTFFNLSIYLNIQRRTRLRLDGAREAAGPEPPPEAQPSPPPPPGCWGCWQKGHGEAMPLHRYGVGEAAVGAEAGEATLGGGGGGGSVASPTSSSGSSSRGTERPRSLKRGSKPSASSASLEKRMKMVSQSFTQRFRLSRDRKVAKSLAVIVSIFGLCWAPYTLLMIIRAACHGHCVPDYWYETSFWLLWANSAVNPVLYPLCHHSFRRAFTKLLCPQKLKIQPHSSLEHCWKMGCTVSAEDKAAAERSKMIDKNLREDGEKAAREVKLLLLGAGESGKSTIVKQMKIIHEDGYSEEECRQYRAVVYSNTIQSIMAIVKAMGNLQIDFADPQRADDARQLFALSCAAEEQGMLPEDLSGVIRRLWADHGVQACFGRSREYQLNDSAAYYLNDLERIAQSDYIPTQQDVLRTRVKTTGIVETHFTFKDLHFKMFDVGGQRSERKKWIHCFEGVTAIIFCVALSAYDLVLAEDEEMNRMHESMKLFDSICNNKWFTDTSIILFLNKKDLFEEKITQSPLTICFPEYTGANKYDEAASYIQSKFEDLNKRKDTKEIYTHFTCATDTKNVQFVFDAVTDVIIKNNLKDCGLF
How it was run: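 Values are percent inhibition of 1 μM histamine-stimulated GTP-gamma35S […] binding, with non-specific binding (10 μM GTP-gammaS) subtracted, by compounds tested at 4 μM. Membranes (35 μg) from Sf9 cells expressing chimeric human H3 with G-protein subunits were used in Tris pH 7.4 buffer with 10 μM GDP. Incubation lasted 60 min at room temperature, followed by filtration and scintillation counting.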

Row | Compound | inhibition at 4 µM [%]
1 | Cc1ccc(-c2ccc3c(c2)CCN(CC(=O)N2CCN(C4CCC4)CC2)C3)cc1C [Compound 447, 2-[2-(4-cyclobutylpiperazin-1-yl)-2-oxoethyl]-6-(3,4-dimethylphenyl)-1,2,3,4-tetrahydroisoquinoline] | ≥ 90
2 | CC(C)c1cccc(-c2ccc3c(c2)CCN(CC(=O)N2CCN(C(C)C)CC2)C3)c1 [Compound 442, 6-(3-isopropylphenyl)-2-[2-(4-isopropylpiperazin-1-yl)-2-oxoethyl]-1,2,3,4-tetrahydroisoquinoline] | ≥ 90
3 | O=C(CN1CCc2cc(-c3cccc(Cl)c3)ccc2C1)N1CCN(C2CCC2)CC1 [Compound 401, 6-(3-chlorophenyl)-2-[2-(4-cyclobutylpiperazin-1-yl)-2-oxoethyl]-1,2,3,4-tetrahydroisoquinoline] | ≥ 90
4 | CC(C)N1CCN(C(=O)CN2CCc3cc(-c4ccc5c(c4)OCCO5)ccc3C2)CC1 [Compound 385, 6-(2,3-dihydro-1,4-benzodioxin-6-yl)-2-[2-(4-isopropylpiperazin-1-yl)-2-oxoethyl]-1,2,3,4-tetrahydroisoquinoline] | ≥ 90
5 | CCc1ccc(-c2ccc3c(c2)CCN(CC(=O)N2CCN(C4CCCCC4)CC2)C3)cc1 [Compound 461, 2-[2-(4-cyclohexylpiperazin-1-yl)-2-oxoethyl]-6-(4-ethylphenyl)-1,2,3,4-tetrahydroisoquinoline] | ≥ 90
6 | Cc1ccc(-c2ccc3c(c2)CCN(CC(=O)N2CCN(C4CCC4)CC2)C3)cc1F [Compound 426, 2-[2-(4-cyclobutylpiperazin-1-yl)-2-oxoethyl]-6-(3-fluoro-4-methylphenyl)-1,2,3,4-tetrahydroisoquinoline] | ≥ 90
7 | CC(C)(C)c1ccc(-c2ccc3c(c2)CCN(CC(=O)N2CCN(C4CCCCC4)CC2)C3)cc1 [Compound 473, 6-(4-tert-butylphenyl)-2-[2-(4-cyclohexylpiperazin-1-yl)-2-oxoethyl]-1,2,3,4-tetrahydroisoquinoline] | ≥ 90
8 | O=C(CN1CCc2cc(-c3cccc(F)c3)ccc2C1)N1CCN(C2CCCC2)CC1 [Compound 411, 2-[2-(4-cyclopentylpiperazin-1-yl)-2-oxoethyl]-6-(3-fluorophenyl)-1,2,3,4-tetrahydroisoquinoline] | ≥ 90
9 | Cc1cc(C)cc(-c2ccc3c(c2)CCN(CC(=O)N2CCN(C4CCCCC4)CC2)C3)c1 [Compound 457, 2-[2-(4-cyclohexylpiperazin-1-yl)-2-oxoethyl]-6-(3,5-dimethylphenyl)-1,2,3,4-tetrahydroisoquinoline] | ≥ 90
10 | O=C(CN1CCc2cc(-c3ccc(F)cc3)ccc2C1)N1CCN(C2CCCC2)CC1 [Compound 408, 2-[2-(4-cyclopentylpiperazin-1-yl)-2-oxoethyl]-6-(4-fluorophenyl)-1,2,3,4-tetrahydroisoquinoline] | ≥ 90
11 | O=C(CN1CCc2cc(-c3cccc(F)c3)ccc2C1)N1CCN(C2CCCCC2)CC1 [Compound 412, 2-[2-(4-cyclohexylpiperazin-1-yl)-2-oxoethyl]-6-(3-fluorophenyl)-1,2,3,4-tetrahydroisoquinoline] | ≥ 90
12 | CC(C)(C)c1ccc(-c2ccc3c(c2)CCN(CC(=O)N2CCN(C4CCC4)CC2)C3)cc1 [Compound 471, 6-(4-tert-butylphenyl)-2-[2-(4-cyclobutylpiperazin-1-yl)-2-oxoethyl]-1,2,3,4-tetrahydroisoquinoline] | ≥ 90
13 | Cc1ccc(-c2ccc3c(c2)CCN(CC(=O)N2CCN(C(C)C)CC2)C3)cc1 [Compound 438, 2-[2-(4-isopropylpiperazin-1-yl)-2-oxoethyl]-6-(4-methylphenyl)-1,2,3,4-tetrahydroisoquinoline] | ≥ 90
14 | O=C(CN1CCc2cc(-c3ccc4ccccc4c3)ccc2C1)N1CCN(C2CCC2)CC1 [Compound 416, 2-[2-(4-cyclobutylpiperazin-1-yl)-2-oxoethyl]-6-(2-naphthyl)-1,2,3,4-tetrahydroisoquinoline] | ≥ 90

same assay, conditions: Table II "Ki", symbol †, 4 μM of the compound, 1 μM histamine, read-out: percent inhibition of the signal obtained with 1 μM histamine

Row | Compound | inhibition at 4 µM [%]
15 | O=C(CN1CCc2cc(-c3cc(F)cc(F)c3)ccc2C1)N1CCN(C2CCCC2)CC1 [Compound 597, 2-[2-(4-cyclopentylpiperazin-1-yl)-2-oxoethyl]-6-(3,5-difluorophenyl)-1,2,3,4-tetrahydroisoquinoline] | ≥ 90
16 | CC(C)N1CCN(C(=O)CN2CCc3cc(-c4cccc(N(C)C)c4)ccc3C2)CC1 [Compound 539, 3-{2-[2-(4-isopropylpiperazin-1-yl)-2-oxoethyl]-1,2,3,4-tetrahydroisoquinolin-6-yl}-N,N-dimethylaniline] | ≥ 90
17 | O=C(CN1CCc2cc(-c3cccc(F)c3F)ccc2C1)N1CCN(C2CCC2)CC1 [Compound 599, 2-[2-(4-cyclobutylpiperazin-1-yl)-2-oxoethyl]-6-(2,3-difluorophenyl)-1,2,3,4-tetrahydroisoquinoline] | ≥ 90
18 | O=C(CN1CCc2cc(-c3ccccc3Oc3ccccc3)ccc2C1)N1CCN(C2CCCCC2)CC1 [Compound 577, 2-[2-(4-cyclohexylpiperazin-1-yl)-2-oxoethyl]-6-(2-phenoxyphenyl)-1,2,3,4-tetrahydroisoquinoline] | ≥ 90
19 | COc1ccc(-c2ccc3c(c2)CCN(CC(=O)N2CCN(C4CCC4)CC2)C3)c(OC)c1 [Compound 563, 2-[2-(4-cyclobutylpiperazin-1-yl)-2-oxoethyl]-6-(2,4-dimethoxyphenyl)-1,2,3,4-tetrahydroisoquinoline] | ≥ 90
20 | O=C(CN1CCc2cc(-c3cc(F)cc(F)c3)ccc2C1)N1CCN(C2CCC2)CC1 [Compound 596, 2-[2-(4-cyclobutylpiperazin-1-yl)-2-oxoethyl]-6-(3,5-difluorophenyl)-1,2,3,4-tetrahydroisoquinoline] | ≥ 90
21 | CCOc1cccc(-c2ccc3c(c2)CCN(CC(=O)N2CCN(C(C)C)CC2)C3)c1 [Compound 485, 6-(3-ethoxyphenyl)-2-[2-(4-isopropylpiperazin-1-yl)-2-oxoethyl]-1,2,3,4-tetrahydroisoquinoline] | ≥ 90
22 | CC(C)Oc1cccc(-c2ccc3c(c2)CCN(CC(=O)N2CCN(C4CCCC4)CC2)C3)c1 [Compound 514, 2-[2-(4-cyclopentylpiperazin-1-yl)-2-oxoethyl]-6-(3-isopropoxyphenyl)-1,2,3,4-tetrahydroisoquinoline] | ≥ 90
23 | CN(C)c1cccc(-c2ccc3c(c2)CCN(CC(=O)N2CCN(C4CCCCC4)CC2)C3)c1 [Compound 538, 3-{2-[2-(4-cyclohexylpiperazin-1-yl)-2-oxoethyl]-1,2,3,4-tetrahydroisoquinolin-6-yl}-N,N-dimethylaniline] | ≥ 90
24 | CC(C)N1CCN(C(=O)CN2CCc3cc(-c4ccc(Oc5ccccc5)cc4)ccc3C2)CC1 [Compound 489, 2-[2-(4-isopropylpiperazin-1-yl)-2-oxoethyl]-6-(4-phenoxyphenyl)-1,2,3,4-tetrahydroisoquinoline] | ≥ 90
25 | CC1CCCC1N1C[C@@H]2C[C@H]1CN2C(=O)CN1CCc2cc(-c3cncnc3)ccc2C1 (stereo in doubt) [Compound 615, 2-{2-[(1S,4S)-5-(2-methylcyclopentyl)-2,5-diazabicyclo[2.2.1]hept-2-yl]-2-oxoethyl}-6-pyrimidin-5-yl-1,2,3,4-tetrahydroisoquinoline] | ≥ 90
26 | COc1ccc(OC)c(-c2ccc3c(c2)CCN(CC(=O)N2CCN(C(C)C)CC2)C3)c1 [Compound 562, 6-(2,5-dimethoxyphenyl)-2-[2-(4-isopropylpiperazin-1-yl)-2-oxoethyl]-1,2,3,4-tetrahydroisoquinoline] | ≥ 90
27 | COc1ccc(-c2ccc3c(c2)CCN(CC(=O)N2CCN(C4CCCCC4)CC2)C3)c(C)c1 [Compound 550, 2-[2-(4-cyclohexylpiperazin-1-yl)-2-oxoethyl]-6-(4-methoxy-2-methylphenyl)-1,2,3,4-tetrahydroisoquinoline] | ≥ 90
28 | COc1ccc(-c2ccc3c(c2)CCN(CC(=O)N2CCN(C4CCCCC4)CC2)C3)c(OC)c1 [Compound 565, 2-[2-(4-cyclohexylpiperazin-1-yl)-2-oxoethyl]-6-(2,4-dimethoxyphenyl)-1,2,3,4-tetrahydroisoquinoline] | ≥ 90
29 | CC(C)CN1CCN(C(=O)CN2CCc3cc(-c4cncnc4)ccc3C2)CC1 [Compound 605, 2-[2-(4-isobutylpiperazin-1-yl)-2-oxoethyl]-6-pyrimidin-5-yl-1,2,3,4-tetrahydroisoquinoline] | ≥ 90
30 | COc1ccc(-c2ccc3c(c2)CCN(CC(=O)N2CCN(C(C)C)CC2)C3)cc1 [Compound 523, 2-[2-(4-isopropylpiperazin-1-yl)-2-oxoethyl]-6-(4-methoxyphenyl)-1,2,3,4-tetrahydroisoquinoline] | ≥ 90
31 | O=C(CN1CCc2cc(-c3ccc(F)c(Cl)c3)ccc2C1)N1CCN(C2CCCCC2)CC1 [Compound 581, 6-(3-chloro-4-fluorophenyl)-2-[2-(4-cyclohexylpiperazin-1-yl)-2-oxoethyl]-1,2,3,4-tetrahydroisoquinoline] | ≥ 90
32 | O=C(CN1CCc2cc(-c3cccc(F)c3F)ccc2C1)N1CCN(C2CCCCC2)CC1 [Compound 601, 2-[2-(4-cyclohexylpiperazin-1-yl)-2-oxoethyl]-6-(2,3-difluorophenyl)-1,2,3,4-tetrahydroisoquinoline] | ≥ 90
33 | CCCOc1ccc(-c2ccc3c(c2)CCN(CC(=O)N2CCN(C(C)C)CC2)C3)cc1 [Compound 547, 2-[2-(4-isopropylpiperazin-1-yl)-2-oxoethyl]-6-(4-propoxyphenyl)-1,2,3,4-tetrahydroisoquinoline] | ≥ 90
